Earlier results, collected in US20250223207A1, “COMPOSITIONS OF SUPPORTED METAL CATALYSTS AND METHODS THEREOF” (THE TEXAS A&M UNIVERSITY SYSTEM, priority 2024, published 2025).

Conditions: PFAS compounds, Table 7

Point of comparison: O=C(O)C(F)(F)C(F)(F)C(F)(F)C(F)(F)C(F)(F)C(F)(F)C(F)(F)C(F)(F)F [PFNA, perfluorononanoic acid], pKa −0.21. Against it:
- O=C(O)C(F)(OC(F)(F)C(F)(F)C(F)(F)F)C(F)(F)F (stereo not shown) [HFPO-DA, hexafluoropropylene oxide dimer acid] — higher, 2.84
- O=S(=O)(O)C(F)(F)C(F)(F)C(F)(F)C(F)(F)F [PFBS, perfluorobutane sulfonic acid] — lower, −3.31
- O=S(=O)(O)C(F)(F)C(F)(F)C(F)(F)C(F)(F)C(F)(F)C(F)(F)F [PFHxS, perfluorohexanesulfonic acid] — lower, −3.32
- O=C(O)C(F)(F)C(F)(F)C(F)(F)C(F)(F)C(F)(F)C(F)(F)C(F)(F)F [PFOA, perfluorooctanoic acid] — higher, 1.30

In the case of O=S(=O)(O)C(F)(F)C(F)(F)C(F)(F)C(F)(F)C(F)(F)C(F)(F)C(F)(F)C(F)(F)F [PFOS, perfluoro octane sulfonic acid], the pKa is listed as “=<1.0”.

Conditions: human bodies, oral

For COc1cc(Cc2cnc(N)nc2N)cc(OC)c1OC [TMP, Trimethoprim], the “Fraction of orally taken dose metabolized” value is listed as 22.5%.
